The results in this text go back to patent US8106034B2, “Angiotensin II receptor antagonists” (Merck Sharp & Dohme Corp., priority 2008, dated 2012).

Each structure is given as a SMILES string.

This assay has as its system isolated rabbit thoracic aorta preparations. As to the kind of experiment: Vessel relaxation in isolated rabbit thoracic aorta preparations. Conditions: Oryctolagus cuniculus; in vitro, rabbit aortic rings precontracted with noradrenaline, functional endothelium present. On the procedure: The ability of the compounds to induce vasorelaxation was tested in vitro in isolated rabbit thoracic aorta preparations (Wanstall J. C. et al., Br. J. Pharmacol., 134:463-472, 2001). Male New Zealand rabbits were anaesthetized with thiopental-Na (50 mg/kg, iv), sacrificed by exsanguinations and then the thorax was opened and the aorta dissected. Aortic ring preparations (4 mm in length) were set up in physiological salt solution (PSS) at 37° C. in small organ chambers (5 ml). The composition of PSS was (mM): NaCl 130, NaHCO3 14.9, KH2PO4 1.2, MgSO4 1.2, HEPES 10, CaCl2, ascorbic acid […] and glucose 1.1 (95% O2/5% CO2; pH 7.4). Each ring was mounted under 2 g passive tension. Isometric tension was recorded with a Grass transducer (Grass FT03) attached to a BIOPAC MP150 System. Preparations were allowed to equilibrate for 1 h, and then contracted submaximally with noradrenaline (NA, 1 μM) and, when the contraction was stable, acetylcholine (ACh, 10 μM) was added. A relaxant response to ACh indicated the presence of a functional endothelium. […] When a stable precontraction was reached, a cumulative concentration-response curve to either of the vasorelaxant agents was obtained in the presence of a functional endothelium. Each arterial ring was exposed to only one combination of inhibitor and vasorelaxant. […]
Examples 3 and 5 were evaluated for vessel relaxation.

With `CCCCc1nc(Cl)c(C(=O)OCO/N=[N+](\[O-])N2CCCCC2CO)n1Cc1ccc(-c2ccccc2-c2nnn[nH]2)cc1` (centres unmarked) [Example 3, O^2-({[(2-butyl-4-chloro-1-{[2′-(1H-tetrazol-5-yl)biphenyl-4-yl]methyl}-1H-imidazol-5-yl)carbonyl]oxy}methyl)1-[2-(hydroxymethyl)piperidin-1-yl]diazen-1-ium-1,2-diolate], the EC50 (usually the midpoint of the concentration-response curve) is 5.3 µM.

Take `CCCCc1nc(Cl)c(C(=O)OCO/N=[N+](\[O-])N2CCC[C@H]2C(=O)O)n1Cc1ccc(-c2ccccc2-c2nnn[nH]2)cc1` [Example 5, O^2-({[(2-butyl-4-chloro-1-{[2′-(1H-tetrazol-5-yl)biphenyl-4-yl]methyl}-1H-imidazol-5-yl)carbonyl]oxy}methyl)1-[2S-(carboxylato)pyrrolidin-1-yl]diazen-1-ium-1,2-diolate]: the EC50 was 18.7 µM.
